Test results from patent publication US12077503B2, “Substituted cyclic amides and their use as herbicides” (FMC CORPORATION, priority 2015, dated 2024).

Assays:
Format in all cases: in vivo
[1] = test system: barnyardgrass (Echinochloa crus-galli); assay: Test G Pre-Emergence Protocol; details: Echinochloa crus-galli, pre-emergence, 312 h, evaluated after 13 days; for pest or weed control at 15.625 g/ha: 15.625 g ai/ha, read-out: Barnyard grass damage rating (100=total damage to plant; 0=no damage to plant); for pest or weed control at 62.5 g/ha: 62.5 g ai/ha, 100=total damage to plant, 0=no damage to plant, read-out: plant damage rating, Barnyardgrass; for pest or weed control at 250 g/ha: 250 g ai/ha, read-out: Barnyardgrass damage rating (100=total damage to plant; 0=no damage to plant)
Procedure, shortened: (§1)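 Pre-emergence spray, 15.625/62.5/250 g/ha, vehicle acetone:water 50:50 + 0.5% Tween 20, applied 1 d after sowing. Glasshouse 24/16° C, 14 h light, 65% RH, watered twice daily. Visual damage rating at 13 d, 0–100 scale.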

[2] = test system: corn (Zea mays); assay: Test G Pre-Emergence Protocol; details: Zea mays, pre-emergence, 312 h, evaluated after 13 days; for plant injury at 15.625 g/ha: 15.625 g ai/ha; for plant injury at 15.625 g/ha / plant injury at 250 g/ha: read-out: Corn damage rating (100=total damage to plant; 0=no damage to plant); for plant injury at 62.5 g/ha: 62.5 g ai/ha, 100=total damage to plant, 0=no damage to plant, read-out: plant damage rating, Corn; for plant injury at 250 g/ha: 250 g ai/ha
Procedure, shortened: as §1

[3] = test system: giant foxtail (Setaria faberi); assay: Test G Pre-Emergence Protocol; details: Setaria faberi, pre-emergence, 312 h, evaluated after 13 days; for pest or weed control at 15.625 g/ha: 15.625 g ai/ha; for pest or weed control at 15.625 g/ha / pest or weed control at 250 g/ha: read-out: Foxtail, Giant damage rating (100=total damage to plant; 0=no damage to plant); for pest or weed control at 62.5 g/ha: 62.5 g ai/ha, 100=total damage to plant, 0=no damage to plant, read-out: plant damage rating, Foxtail, Giant; for pest or weed control at 250 g/ha: 250 g ai/ha
Procedure, shortened: as §1

[4] = test system: ivy-leaved morning glory (Ipomoea hederacea); assay: Test G Pre-Emergence Protocol; details: Ipomoea, pre-emergence, 312 h, evaluated after 13 days; for pest or weed control at 15.625 g/ha: 15.625 g ai/ha, read-out: Morning-glory, Ivy-leaved damage rating (100=total damage to plant; 0=no damage to plant); for pest or weed control at 62.5 g/ha: 62.5 g ai/ha, 100=total damage to plant, 0=no damage to plant, read-out: plant damage rating, Morningglory, Ivy-leaved; for pest or weed control at 250 g/ha: 250 g ai/ha, read-out: Morningglory, Ivy-leaved damage rating (100=total damage to plant; 0=no damage to plant)
Procedure, shortened: as §1

[5] = test system: redroot pigweed (Amaranthus retroflexus); assay: Test G Pre-Emergence Protocol; details: Amaranthus retroflexus, pre-emergence, 312 h, evaluated after 13 days; for pest or weed control at 15.625 g/ha: 15.625 g ai/ha; for pest or weed control at 15.625 g/ha / pest or weed control at 250 g/ha: read-out: Pigweed, Redroot damage rating (100=total damage to plant; 0=no damage to plant); for pest or weed control at 62.5 g/ha: 62.5 g ai/ha, 100=total damage to plant, 0=no damage to plant, read-out: plant damage rating, Pigweed, Redroot; for pest or weed control at 250 g/ha: 250 g ai/ha
Procedure, shortened: as §1

[6] = test system: velvetleaf (Abutilon theophrasti); assay: Test G Pre-Emergence Protocol; details: Abutilon theophrasti, pre-emergence, 312 h, evaluated after 13 days; for pest or weed control at 15.625 g/ha: 15.625 g ai/ha; for pest or weed control at 15.625 g/ha / pest or weed control at 250 g/ha: read-out: Velvetleaf damage rating (100=total damage to plant; 0=no damage to plant); for pest or weed control at 62.5 g/ha: 62.5 g ai/ha, 100=total damage to plant, 0=no damage to plant, read-out: plant damage rating, Velvetleaf; for pest or weed control at 250 g/ha: 250 g ai/ha
Procedure, shortened: as §1

[7] = test system: barnyardgrass (Echinochloa crus-galli); assay: Test G Post-Emergence Protocol; details: Echinochloa crus-galli, post-emergence, 312 h; for pest or weed control at 15.625 g/ha: 15.625 g ai/ha, evaluated after 13 days (100=total damage to plant; 0=no damage to plant), read-out: Barnyardgrass damage rating; for pest or weed control at 62.5 g/ha: 62.5 g ai/ha, read-out: Barnyardgrass damage rating (100=total damage to plant; 0=no damage to plant); for pest or weed control at 62.5 g/ha / pest or weed control at 250 g/ha: evaluated after 13 days; for pest or weed control at 250 g/ha: 250 g ai/ha, read-out: damage to plant, Barnyardgrass (100=total damage to plant; 0=no damage to plant)
Procedure, shortened: (§2)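 Post-emergence herbicidal damage, scored visually 0–100 at 13 days. Application at 15.625, 62.5 or 250 g/ha onto 8-day-old plants grown under glasshouse control.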

[8] = test system: corn (Zea mays); assay: Test G Post-Emergence Protocol; details: Zea mays, post-emergence, 312 h; for plant injury at 15.625 g/ha: 15.625 g ai/ha, evaluated after 13 days (100=total damage to plant; 0=no damage to plant), read-out: Corn damage rating; for plant injury at 62.5 g/ha: 62.5 g ai/ha, read-out: Corn damage rating (100=total damage to plant; 0=no damage to plant); for plant injury at 62.5 g/ha / plant injury at 250 g/ha: evaluated after 13 days; for plant injury at 250 g/ha: 250 g ai/ha, read-out: damage to plant, Corn (100=total damage to plant; 0=no damage to plant)
Procedure, shortened: as §2

[9] = test system: giant foxtail (Setaria faberi); assay: Test G Post-Emergence Protocol; details: Setaria faberi, post-emergence, 312 h; for pest or weed control at 15.625 g/ha: 15.625 g ai/ha, evaluated after 13 days (100=total damage to plant; 0=no damage to plant), read-out: Foxtail, Giant damage rating; for pest or weed control at 62.5 g/ha: 62.5 g ai/ha, read-out: Foxtail, Giant damage rating (100=total damage to plant; 0=no damage to plant); for pest or weed control at 62.5 g/ha / pest or weed control at 250 g/ha: evaluated after 13 days; for pest or weed control at 250 g/ha: 250 g ai/ha, read-out: damage to plant, Foxtail, Giant (100=total damage to plant; 0=no damage to plant)
Procedure, shortened: as §2

[10] = test system: ivy-leaved morning glory (Ipomoea hederacea); assay: Test G Post-Emergence Protocol; details: Ipomoea, post-emergence, 312 h; for pest or weed control at 15.625 g/ha: 15.625 g ai/ha, evaluated after 13 days (100=total damage to plant; 0=no damage to plant), read-out: Morningglory, Ivy-leaved damage rating; for pest or weed control at 62.5 g/ha: 62.5 g ai/ha, read-out: Morningglory, Ivy-leaved damage rating (100=total damage to plant; 0=no damage to plant); for pest or weed control at 62.5 g/ha / pest or weed control at 250 g/ha: evaluated after 13 days; for pest or weed control at 250 g/ha: 250 g ai/ha, read-out: damage to plant, Morningglory, Ivy-leaved (100=total damage to plant; 0=no damage to plant)
Procedure, shortened: as §2

[11] = test system: redroot pigweed (Amaranthus retroflexus); assay: Test G Post-Emergence Protocol; details: Amaranthus retroflexus, post-emergence, 312 h; for pest or weed control at 15.625 g/ha: 15.625 g ai/ha, evaluated after 13 days (100=total damage to plant; 0=no damage to plant), read-out: Pigweed, Redroot damage rating; for pest or weed control at 62.5 g/ha: 62.5 g ai/ha, read-out: Pigweed, Redroot damage rating (100=total damage to plant; 0=no damage to plant); for pest or weed control at 62.5 g/ha / pest or weed control at 250 g/ha: evaluated after 13 days; for pest or weed control at 250 g/ha: 250 g ai/ha, read-out: damage to plant, Pigweed, Redroot (100=total damage to plant; 0=no damage to plant)
Procedure, shortened: as §2

[12] = test system: velvetleaf (Abutilon theophrasti); assay: Test G Post-Emergence Protocol; details: Abutilon theophrasti, post-emergence, 312 h; for pest or weed control at 15.625 g/ha: 15.625 g ai/ha, evaluated after 13 days (100=total damage to plant; 0=no damage to plant), read-out: Velvetleaf damage rating; for pest or weed control at 62.5 g/ha: 62.5 g ai/ha, read-out: Velvetleaf damage rating (100=total damage to plant; 0=no damage to plant); for pest or weed control at 62.5 g/ha / pest or weed control at 250 g/ha: evaluated after 13 days; for pest or weed control at 250 g/ha: 250 g ai/ha, read-out: damage to plant, Velvetleaf (100=total damage to plant; 0=no damage to plant)
Procedure, shortened: as §2

| Compound | pest or weed control at 15.625 g/ha [1] | pest or weed control at 62.5 g/ha [1] | pest or weed control at 250 g/ha [1] | plant injury at 15.625 g/ha [2] | plant injury at 62.5 g/ha [2] | plant injury at 250 g/ha [2] | pest or weed control at 15.625 g/ha [3] | pest or weed control at 62.5 g/ha [3] | pest or weed control at 250 g/ha [3] | pest or weed control at 15.625 g/ha [4] | pest or weed control at 62.5 g/ha [4] | pest or weed control at 250 g/ha [4] | pest or weed control at 15.625 g/ha [5] | pest or weed control at 62.5 g/ha [5] | pest or weed control at 250 g/ha [5] | pest or weed control at 15.625 g/ha [6] | pest or weed control at 62.5 g/ha [6] | pest or weed control at 250 g/ha [6] | pest or weed control at 15.625 g/ha [7] | pest or weed control at 62.5 g/ha [7] | further results |
| --- | --- | --- | --- | --- | --- | --- | --- | --- | --- | --- | --- | --- | --- | --- | --- | --- | --- | --- | --- | --- | --- |
| COc1cc([C@@H]2CN(C)C(=O)[C@H]2C(=O)Nc2cccc(F)c2F)ccn1 (racemic) [Compound 1480] | 30% | 80% | 90% | 20% | 30% | 80% | 40% | 90% | 90% | 0% | 0% | 70% | 0% | 0% | 40% | 0% | 0% | 10% | 50% | 70% | pest or weed control at 250 g/ha [7]: 80%; plant injury at 15.625 g/ha [8]: 20%; plant injury at 62.5 g/ha [8]: 20%; plant injury at 250 g/ha [8]: 60%; pest or weed control at 15.625 g/ha [9]: 60%; pest or weed control at 62.5 g/ha [9]: 70%; pest or weed control at 250 g/ha [9]: 70%; pest or weed control at 15.625 g/ha [10]: 0%; pest or weed control at 62.5 g/ha [10]: 0%; pest or weed control at 250 g/ha [10]: 20%; pest or weed control at 15.625 g/ha [11]: 0%; pest or weed control at 62.5 g/ha [11]: 0%; pest or weed control at 250 g/ha [11]: 10%; pest or weed control at 15.625 g/ha [12]: 0%; pest or weed control at 62.5 g/ha [12]: 0%; pest or weed control at 250 g/ha [12]: 20% |
| COc1nccc(NC(=O)[C@@H]2C(=O)N(C)C[C@H]2c2ccc(C(F)(F)F)cc2)n1 (racemic) [Compound 1640] | 0% | 0% | 0% | 0% | 0% | 0% | 0% | 0% | 0% | 0% | 0% | 0% | 0% | 0% | 0% | 0% | 0% | 0% | 0% | 0% | pest or weed control at 250 g/ha [7]: 0%; plant injury at 15.625 g/ha [8]: 0%; plant injury at 62.5 g/ha [8]: 0%; plant injury at 250 g/ha [8]: 0%; pest or weed control at 15.625 g/ha [9]: 0%; pest or weed control at 62.5 g/ha [9]: 0%; pest or weed control at 250 g/ha [9]: 0%; pest or weed control at 15.625 g/ha [10]: 0%; pest or weed control at 62.5 g/ha [10]: 0%; pest or weed control at 250 g/ha [10]: 0%; pest or weed control at 15.625 g/ha [11]: 0%; pest or weed control at 62.5 g/ha [11]: 0%; pest or weed control at 250 g/ha [11]: 0%; pest or weed control at 15.625 g/ha [12]: 0%; pest or weed control at 62.5 g/ha [12]: 0%; pest or weed control at 250 g/ha [12]: 0% |
